Like-named read-outs stand apart in the source and are kept apart here.
System: sebum production in ear sebaceous glands of male Syrian hamsters
Assay: Animal Model for Inhibition of Sebum Production (hamster ear, HPLC of sebum lipids)
Type: in vivo, Syrian hamster
Conditions: Mesocricetus auratus, 672 h, 4 weeks; for inhibition in vivo at 1 %: 1% topical twice daily; for inhibition in vivo at 3 %: 3% topical twice daily; for inhibition in vivo at 1.5 %: 1.5% topical twice daily
Procedure: Luderschmidt et al. describes an animal model for testing whether compounds are capable of modulating sebum secretion, Arch. Derm. Res., 258, 185-191 (1977). This model uses male Syrian hamsters, whose ears contain sebaceous glands. Based on binding data and cellular assay data, selected compounds were chosen for screening in this model. Those compounds included the products of Examples 1, 20, 81, 82, and 109.
Testing for sebum inhibition was carried out in the following manner. Male Syrian hamsters aged 9 to 10 weeks were introduced into the laboratory environment and acclimated for 2 weeks prior to use in the study. Each group consisted of 5 animals and run in parallel with vehicle and positive controls. Prior to administration, a sufficient quantity of each compound was dissolved in 1 mL of a solvent consisting of ethanol, transcutol, and propylene glycol ([…]) to achieve the final concentration specified in Table IV below.
Animals were dosed topically twice daily, five days a week, for 4 weeks. Each dose consisted of 25 micro liters of vehicle control or drug. The dose was applied to the ventral surfaces of both the right and left ears. All animals were sacrificed approximately 18-24 hours after the final dose. The right ears were collected from each animal and used for sebum analysis.
The ears were prepped for HPLC analysis in the following manner. One 8 mm distal biopsy punch was taken, just above the anatomical “V” mark in the ear to normalize the sample area. The punch was pulled apart. The ventral biopsy surface (the area where the topical dose was directly applied to the sebaceous glands) was retained for testing and the dorsal surface of the biopsy punch was discarded.
Tissue samples were blown with N2 gas and stored at −80° C. under nitrogen until HPLC analysis. In addition to ear samples, an aliquot of each drug and vehicle (at least 250 ul) was also stored at −80° C. for inclusion in the HPLC analysis.
HPLC analysis was carried out on an extract of the tissue sample. Tissue samples were contacted with 3 ml of solvent (a 4:1 admixture of 2,2,4-trimethylpentane and isopropyl alcohol). The mixture was shaken for 15 minutes and stored overnight at room temperature, protected from light. The next morning 1 milliliter of water was added to the sample and shaken for 15 minutes. The sample was then centrifuged at approximately 1500 rpm for 15 minutes. Two ml of the organic phase (top layer) was transferred to a glass vial, dried at 37° C., under nitrogen, for approximately 1 hour, and then lyophilized for approximately 48 hours. The samples were then removed from the lyophilizer and each vial was reconstituted with 600 μl of solvent A (trimethylpentane/tetrahydrofuran (99:1)). The samples were then recapped and vortexed for 5 minutes.
Two hundred (200) μl of each sample was then transferred to a pre-labeled 200 μl HPLC vial with 200 μL glass inserts. The HPLC vials were placed in the autosampler tray for the Agilent 1100 series HPLC unit. The Agilent 1100 HPLC system consisted of a thermostated autosampler, a quarternary pump, a column heater, and an A/D interface module. All components were controlled by Agilent ChemStation software. A Waters Spherisorb S3W 4.6×100 mm analytical column was maintained at 30° C. by the Agilent column heater unit.
The HPLC autosampler was programmed to maintain the sample temperature at 20° C. throughout the run.
Ten (10) uL of each sample was injected in triplicate into the column. Two solvents were used for the solvent gradient. Solvent A was an admixture of trimethylpentane and tetrahydrofuran (99:1). Solvent B was ethylacetate. The gradient utilized is described in the table below: […]
The Sedex 75 Evaporative Light Scattering Detector (ELSD) was operated at 45° C. with a gain of 5, and N2 pressure maintained at 3.1 bar. Analog signal obtained by the instrument was sent to the Agilent A/D interface module where it was converted to a digital output. […]

[1] = cholesterol ester vs vehicle control, read-out: % CE reduction
[2] = wax ester vs vehicle control, read-out: % WE reduction

Structure (SMILES)	inhibition in vivo at 1 % [1] [%]	inhibition in vivo at 1 % [2] [%]	other results
CCCC(Oc1ccc(C#N)c(C(F)(F)F)c1)c1cccc(O)c1 (single isomer, unassigned; (+)) [Example 15, (+)4-[1-(3-Hydroxyphenyl)butoxy]-2-(trifluoromethyl)benzonitrile]	-10	-13	–
CC(C)CC(Oc1ccc(C#N)c(C(F)(F)F)c1)c1cccnc1 (stereo not drawn) [Example 88, 4-(3-Methyl-1-pyridin-3-yl-butoxy)-2-trifluoromethyl-benzonitrile]	17	25	–
CC(Oc1ccc(C#N)c(C(F)(F)F)c1)c1ccccc1 (racemic) [Example 1, 4-(1-Phenyl-ethoxy)-2-trifluoromethyl-benzonitrile]	–	–	inhibition in vivo at 3 % [1]: 52%; inhibition in vivo at 3 % [2]: 71%
CC(Oc1ccc(C#N)c(C(F)(F)F)c1)c1cccc(O)c1 (single isomer, unassigned; (-)) [Example 9, (−)-4-[1-(3-Hydroxyphenyl)ethoxy]-2-(trifluoromethyl)benzonitrile]	–	–	inhibition in vivo at 3 % [1]: 38%; inhibition in vivo at 3 % [2]: 52%
N#Cc1ccc(OCc2cccc(O)c2)cc1C(F)(F)F [Example 6, 4-[(3-Hydroxybenzyl)oxy]-2-(trifluoromethyl)benzonitrile]	–	–	inhibition in vivo at 1.5 % [1]: 25%; inhibition in vivo at 1.5 % [2]: 40%
Cc1ccc(C(CC(C)C)Oc2ccc(C#N)c(C(F)(F)F)c2)cn1 (stereo not drawn) [Example 89, 4-[3-Methyl-1-(6-methyl-pyridin-3-yl)-butoxy]-2-trifluoromethyl-benzonitrile]	21	35	–
C=CCC(Oc1ccc(C#N)c(C(F)(F)F)c1)c1cccc(O)c1 (single isomer, unassigned; (-)) [Example 19, (−)4-{[1-(3-Hydroxyphenyl)but-3-enyl]oxy}-2-(trifluoromethyl)benzonitrile]	6	13	–
COc1cccc(C(C)Oc2ccc(C#N)c(C(F)(F)F)c2)n1 (stereo not drawn) [Example 80, 4-[1-(6-Methoxy-pyridin-2-yl)-ethoxy]-2-trifluoromethyl-benzonitrile]	39	50	–
CCC(Oc1ccc(C#N)c(C(F)(F)F)c1)c1ccccn1 (stereo not drawn) [Example 79, 4-(1-Pyridin^−2-yl-propoxy)-2-trifluoromethyl-benzonitrile]	20	27	–
CC(C)CC(Oc1ccc(C#N)c(C(F)(F)F)c1)c1cccc(O)c1 (single isomer, unassigned; (+)) [Example 21, (+)4-[1-(3-Hydroxyphenyl)-3-methylbutoxy]-2-(trifluoromethyl)benzonitrile]	7	19	–
CCCC(Oc1ccc(C#N)c(C(F)(F)F)c1)c1cccc(O)c1 (racemic) [Example 14, 4-[1-(3-Hydroxyphenyl)butoxy]-2-(trifluoromethyl)benzonitrile]	–	–	inhibition in vivo at 3 % [1]: 18%; inhibition in vivo at 3 % [2]: 38%
CC(Oc1ccc(C#N)c(C(F)(F)F)c1)c1cncc(O)c1 (single isomer, unassigned; (+)) [Example 74, (+)4-[1-(5-Hydroxypyridin-3-yl)ethoxy]-2-(trifluoromethyl)benzonitrile]	21	24	–
